These results are taken from patent US8153791B2, “Substituted pyrimidinyl oxime kinase inhibitors” (Janssen Pharmaceutica N.V., priority 2005, dated 2012).

Bounds are passed on as bounds.

A word on the IC50: it is the concentration that gives 50% inhibition.

In one test the target is T1, EGFR (Homo sapiens, UniProt P00533).
T1 construct: The intracellular portion of EGFR started at nucleotide 2189 (corresponding to amino acid 667) and ended at the termination codon; made in house; host or cells: Sf9 insect cells (baculovirus)
As to the kind of experiment: EGFR Kinase Assay.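 Also: recombinant GST-tagged EGFR expressed in Sf9 cells, phosphorylating biotinylated polyGluTyr with γ-33P ATP on Streptavidin Flashplates, 1 h at 30 °C, scintillation counting, inhibition relative to plate maximum and minimum signals.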 The class given is biochemical.

The next test addresses T2, HER-2 (Homo sapiens, UniProt P04626).
T2 construct: purchased Proqinase (Freiburg, Germany)
Put plainly: HER-2 Kinase Assay.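 Also: HER2 kinase reaction read by scintillation counting, inhibition scaled between maximum and minimum signals set on each plate, IC50 from inhibition against log concentration.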 The class given is biochemical. The following applies: read-out: HER2 IC50.

T1 sequence (P00533 669-1210 limits assumed): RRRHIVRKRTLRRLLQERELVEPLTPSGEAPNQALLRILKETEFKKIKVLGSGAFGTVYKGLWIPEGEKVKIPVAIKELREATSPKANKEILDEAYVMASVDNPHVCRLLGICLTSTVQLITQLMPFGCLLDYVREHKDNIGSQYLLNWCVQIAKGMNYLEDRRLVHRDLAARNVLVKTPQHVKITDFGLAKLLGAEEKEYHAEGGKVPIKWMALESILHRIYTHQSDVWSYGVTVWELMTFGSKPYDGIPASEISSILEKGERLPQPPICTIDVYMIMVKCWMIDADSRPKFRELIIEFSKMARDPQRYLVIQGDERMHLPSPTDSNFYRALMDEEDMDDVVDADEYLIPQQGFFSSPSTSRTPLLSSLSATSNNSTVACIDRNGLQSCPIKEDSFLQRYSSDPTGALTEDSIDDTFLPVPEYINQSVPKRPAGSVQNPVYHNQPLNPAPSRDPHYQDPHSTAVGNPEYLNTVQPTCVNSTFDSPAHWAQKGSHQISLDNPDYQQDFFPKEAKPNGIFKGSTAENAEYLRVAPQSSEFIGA
T2 sequence (P04626 679-1255): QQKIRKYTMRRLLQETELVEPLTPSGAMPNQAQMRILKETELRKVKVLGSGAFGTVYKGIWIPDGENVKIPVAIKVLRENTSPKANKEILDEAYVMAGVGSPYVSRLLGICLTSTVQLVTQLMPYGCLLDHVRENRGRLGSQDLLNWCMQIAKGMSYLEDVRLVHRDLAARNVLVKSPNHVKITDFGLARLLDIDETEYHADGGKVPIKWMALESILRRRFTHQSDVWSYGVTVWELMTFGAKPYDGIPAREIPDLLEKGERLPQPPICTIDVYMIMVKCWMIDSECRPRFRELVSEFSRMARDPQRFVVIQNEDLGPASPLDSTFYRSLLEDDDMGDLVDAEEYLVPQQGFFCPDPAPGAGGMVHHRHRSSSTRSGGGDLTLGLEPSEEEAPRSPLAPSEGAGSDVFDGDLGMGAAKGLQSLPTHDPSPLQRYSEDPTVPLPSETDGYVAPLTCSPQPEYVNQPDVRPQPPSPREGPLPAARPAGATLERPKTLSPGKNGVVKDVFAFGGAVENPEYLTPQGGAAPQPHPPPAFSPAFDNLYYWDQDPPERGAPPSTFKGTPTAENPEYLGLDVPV

With `CO/N=C/c1c(N)ncnc1Nc1ccc2nn(Cc3cccc(F)c3)cc2c1` [Cpd 5], the concentration for half-maximal inhibition (IC50) against EGFR worked out at 500 nM; on HER-2, 3700 nM.
Turning to `Nc1ncnc(Nc2ccc3c(cnn3Cc3cccc(F)c3)c2)c1/C=N/OCC(=O)N1CCOCC1` [Cpd 6, (5E)-4-amino-6-[1-(3-fluoro-benzyl)-1H-indazol-5-ylamino]-pyrimidine-5-carbaldehyde O-(2-morpholin-4-yl-2-oxo-ethyl)-oxime], the 50% inhibitory concentration (IC50) on HER-2 was determined as 100 nM.
As for `CO/N=C/c1c(N)ncnc1Nc1ccc(Oc2ccccc2)c(OC)c1` [Cpd 7, (5E)-4-amino-6-(3-methoxy-4-phenoxy-phenylamino)-pyrimidine-5-carbaldehyde O-methyl-oxime], the IC50 against EGFR came to 50 nM; at HER-2 it was 100 nM.
As for `COc1cc(Nc2ncnc(N)c2/C=N/OCC(=O)N2CCOCC2)ccc1Oc1ccccc1` [Cpd 8, (5E)-4-amino-6-(3-methoxy-4-phenoxy-phenylamino)-pyrimidine-5-carbaldehyde O-(2-morpholin-4-yl-2-oxo-ethyl)-oxime], the half-maximal inhibitory concentration (IC50) at HER-2 worked out at 700 nM.
For the compound `C=CCO/N=C/c1c(N)ncnc1Nc1ccc2c(cnn2Cc2cccc(F)c2)c1` [Cpd 11, (5E)-4-amino-6-[1-(3-fluoro-benzyl)-1H-indazol-5-ylamino]-pyrimidine-5-carbaldehyde O-allyl-oxime], the IC50 on EGFR is 8 nM; on HER-2 it was 10 nM.
The like results for `CC(C)(C)O/N=C/c1c(N)ncnc1Nc1ccc2c(cnn2Cc2cccc(F)c2)c1` [Cpd 12, (5E)-4-amino-6-[1-(3-fluoro-benzyl)-1H-indazol-5-ylamino]-pyrimidine-5-carbaldehyde O-tert-butyl-oxime] were, in that order, 40 nM and 50 nM.
Regarding `CO/N=C/c1c(N)ncnc1Nc1ccc(Oc2cccnc2)c(C)c1` [Cpd 13, (5E)-4-amino-6-[3-methyl-4-(pyridin-3-yloxy)-phenylamino]-pyrimidine-5-carbaldehyde O-methyl-oxime], the half-maximal inhibitory concentration (IC50) against EGFR was 200 nM; at HER-2, 100 nM.
As for `CCO/N=C/c1c(N)ncnc1N[C@H](C)c1ccccc1` [Cpd 14], the IC50 against EGFR was determined as 100 nM; on HER-2 it was 3100 nM.
As to `CCO/N=C/c1c(N)ncnc1N[C@@H](C)c1ccccc1` [Cpd 16, (5E)-4-amino-6-[(1S)-1-phenyl-ethylamino]-pyrimidine-5-carbaldehyde O-ethyl-oxime], the 50% inhibitory concentration (IC50) at EGFR and on HER-2 was 10 nM in each case.
In the case of `CCO/N=C/c1c(N)ncnc1Nc1ccc2[nH]ccc2c1` [Cpd 17, (5E)-4-amino-6-(1H-indol-5-ylamino)-pyrimidine-5-carbaldehyde O-ethyl-oxime], the half-maximal inhibitory concentration (IC50) at EGFR worked out at 20 nM; on HER-2, 600 nM.
For the compound `CCO/N=C/c1c(N)ncnc1Nc1ccc(OCc2cccc(F)c2)c(Cl)c1` [Cpd 18, (5E)-4-amino-6-[3-chloro-4-(3-fluoro-benzyloxy)-phenylamino)-pyrimidine-5-carbaldehyde O-ethyl-oxime], the IC50 stood at 30 nM on EGFR and 40 nM on HER-2.
As to `CO/N=C/c1c(N)ncnc1Nc1ccc2c(c1)CCC2` [Cpd 20], the half-maximal inhibitory concentration (IC50) on EGFR came out at 1200 nM; on HER-2, 14100 nM.
In the case of `CO/N=C/c1c(N)ncnc1Nc1ccc(OC(F)F)cc1` [Cpd 21], the IC50 at EGFR was 1500 nM; at HER-2 it was 5300 nM.
For `CO/N=C/c1c(N)ncnc1Nc1ccc2c(c1)OCO2` [Cpd 23], the half-maximal inhibitory concentration (IC50) on EGFR amounted to 1900 nM; at HER-2, 28500 nM.
The like results for `CO/N=C/c1c(N)ncnc1Nc1ccc(Oc2ccccc2)cc1` [Cpd 24, (5E)-4-amino-6-(4-phenoxy-phenylamino)-pyrimidine-5-carbaldehyde O-methyl-oxime] were, in that order, 90 nM and 200 nM.
For `CO/N=C/c1c(N)ncnc1Nc1ccc(OCc2ccccc2)cc1` [Cpd 25, (5E)-4-amino-6-(4-benzyloxy-phenylamino)-pyrimidine-5-carbaldehyde O-methyl-oxime], in that order: 30 nM and 300 nM.
For `CO/N=C/c1c(N)ncnc1Nc1cccc(OCc2ccccc2)c1` [Cpd 28], the concentration for half-maximal inhibition (IC50) at EGFR turned out to be 900 nM; on HER-2 it was 5500 nM.
Consider `CO/N=C/c1c(N)ncnc1Nc1ccc(Oc2ccc(C)nc2)c(C)c1` [Cpd 29, (5E)-4-amino-6-[3-methyl-4-(6-methyl-pyridin-3-yloxy)-phenylamino]-pyrimidine-5-carbaldehyde O-methyl-oxime], for which the IC50 on EGFR and at HER-2 was 200 nM each time.
In the case of `Nc1ncnc(Nc2ccc3c(cnn3Cc3cccc(F)c3)c2)c1/C=N/OCCOc1ccccc1` [Cpd 31, (5E)-4-amino-6-[1-(3-fluoro-benzyl)-1H-indazol-5-ylamino]-pyrimidine-5-carbaldehyde O-(2-phenoxy-ethyl)-oxime], the 50% inhibitory concentration (IC50) on EGFR came out at 20 nM; on HER-2, 300 nM.
Turning to `CO/N=C/c1c(N)ncnc1Nc1ccc(OCc2ccccn2)c(Cl)c1` [Cpd 32, (5E)-4-amino-6-[3-chloro-4-(pyridin-2-ylmethoxy)-phenylamino]-pyrimidine-5-carbaldehyde O-methyl-oxime], the results for the IC50 against EGFR and at HER-2 were 10 nM and 90 nM, respectively.
For `CCO/N=C/c1c(N)ncnc1Nc1ccc2c(ccn2Cc2cccc(F)c2)c1` [Cpd 33, (5E)-4-amino-6-[1-(3-fluoro-benzyl)-1H-indol-5-ylamino]-pyrimidine-5-carbaldehyde O-ethyl-oxime], in that order: 20 nM and 100 nM.
The like results for `CCO/N=C/c1c(N)ncnc1Nc1ccc(OCc2ccccc2)c(Cl)c1` [Cpd 37, (5E)-4-amino-6-(4-benzyloxy-3-chloro-phenylamino)-pyrimidine-5-carbaldehyde O-ethyl-oxime] were, in that order, 20 nM and 90 nM.
For the compound `CO/N=C/c1c(N)ncnc1Nc1ccc(Oc2cccnc2)c(Cl)c1` [Cpd 38, (5E)-4-amino-6-[3-chloro-4-(pyridin-3-yloxy)-phenylamino]-pyrimidine-5-carbaldehyde O-methyl-oxime], the IC50 was 100 nM on EGFR and 50 nM on HER-2.
Turning to `CNc1ncnc(Nc2ccc(OCc3cccc(F)c3)c(Cl)c2)c1C=NOC` [Cpd 39, 4-[3-Chloro-4-(3-fluoro-benzyloxy)-phenylamino]-6-methylamino-pyrimidine-5-carbaldehyde O-methyl-oxime], on HER-2, the IC50 stood at 14800 nM.
As to `CCNc1ncnc(Nc2ccc3c(cnn3Cc3cccc(F)c3)c2)c1/C=N/OC` [Cpd 40, (5E)-4-ethylamino-6-[1-(3-fluoro-benzyl)-1H-indazol-5-ylamino]-pyrimidine-5-carbaldehyde O-methyl-oxime], on HER-2, the IC50 worked out at 10600 nM.
On to `CCNc1ncnc(Nc2ccc3c(cnn3Cc3cccc(F)c3)c2)c1/C=N/OCC` [Cpd 41, (5E)-4-ethylamino-6-[1-(3-fluoro-benzyl)-1H-indazol-5-ylamino]-pyrimidine-5-carbaldehyde O-ethyl-oxime], for which the half-maximal inhibitory concentration (IC50) against EGFR came to 400 nM; at HER-2 it was 3600 nM.
For `CCNc1ncnc(Nc2ccc(OCc3cccc(F)c3)c(Cl)c2)c1/C=N/OC` [Cpd 42, (5E)-4-[3-chloro-4-(3-fluoro-benzyloxy)-phenylamino]-6-ethylamino-pyrimidine-5-carbaldehyde O-methyl-oxime], the IC50 against EGFR amounted to 7800 nM.
As to `CCNc1ncnc(Nc2ccc(OCc3cccc(F)c3)c(Cl)c2)c1/C=N/OCC` [Cpd 43, (5E)-4-[3-chloro-4-(3-fluoro-benzyloxy)-phenylamino]-6-ethylamino-pyrimidine-5-carbaldehyde O-ethyl-oxime], the IC50 against EGFR is 1400 nM; at HER-2, 10400 nM.
For the compound `COc1ccc(CO/N=C/c2c(N)ncnc2Nc2ccc3c(cnn3Cc3cccc(F)c3)c2)cc1` [Cpd 44, (5E)-4-amino-6-[1-(3-fluoro-benzyl)-1H-indazol-5-ylamino]-pyrimidine-5-carbaldehyde O-(4-methoxy-benzyl)-oxime], the figures for the half-inhibitory concentration (IC50) at EGFR and at HER-2 were 70 nM and 1600 nM, respectively.
As for `CCO/N=C/c1c(N)ncnc1Nc1ccc2c(cnn2Cc2ccccc2)c1` [Cpd 49, (5E)-4-amino-6-(1-benzyl-1H-indazol-5-ylamino)-pyrimidine-5-carbaldehyde O-ethyl-oxime], the IC50 against EGFR was 30 nM; on HER-2, 10 nM.
Consider `CCO/N=C/c1c(N)ncnc1Nc1ccc2c(cnn2Cc2cccc(C#N)c2)c1` [Cpd 51, 3-{5-[6-amino-(5E)-5-(ethoxyimino-methyl)-pyrimidin-4-ylamino]-indazol-1-ylmethyl}-benzonitrile], for which the IC50 on EGFR and at HER-2 was 40 nM each time.
In the case of `CCO/N=C/c1c(N)ncnc1Nc1ccc2nn(Cc3ccccc3)cc2c1` [Cpd 52], the IC50 at HER-2 turned out to be 4500 nM.
In the case of `CCO/N=C/c1c(N)ncnc1Nc1ccc2c(cnn2Cc2cccc(OC)c2)c1` [Cpd 57], at EGFR, half-maximal inhibition (IC50) required 200 nM.
In turn, `CCO/N=C/c1c(N)ncnc1Nc1ccc2[nH]c(Cc3cccc(F)c3)nc2c1` [Cpd 58, (5E)-4-amino-6-[2-(3-fluoro-benzyl)-1H-benzoimidazol-5-ylamino]-pyrimidine-5-carbaldehyde O-ethyl-oxime] showed a half-inhibitory concentration (IC50) against EGFR of 30 nM.
Turning to `CO/N=C/c1c(N)ncnc1Nc1cccc(Cl)c1` [Cpd 59, (5E)-4-amino-6-(3-chloro-phenylamino)-pyrimidine-5-carbaldehyde O-methyl-oxime], on EGFR, the midpoint of inhibition, the IC50, lay at 50 nM.
For `CO/N=C/c1c(N)ncnc1Nc1ccc(OCc2cccc(F)c2)c(OC)c1` [Cpd 61], 200 nM corresponded to half-maximal inhibition on EGFR (IC50).
The compound `CCO/N=C/c1c(N)ncnc1Nc1ccc(OCc2cccc(F)c2)c(OC)c1` [Cpd 62] had an IC50 against EGFR of 200 nM.
Take `CO/N=C/c1c(N)ncnc1Nc1ccc2oc(Cc3ccccc3)cc2c1` [Cpd 73]: the IC50 on HER-2 was found to be 2900 nM.
For the compound `Nc1ncnc(NCc2ccc3c(c2)OCO3)c1C=NCc1ccc2c(c1)OCO2` [Cpd 119, N-benzo[1,3]dioxol-5-ylmethyl-5-[(benzo[1,3]dioxol-5-ylmethylimino)-methyl]-pyrimidine-4,6-diamine], the IC50 at HER-2 is over 10000 nM.
Take `CON=Cc1c(N)ncnc1NCc1ccc2c(c1)OCO2` [Cpd 121, 4-amino-6-[(benzo[1,3]dioxol-5-ylmethyl)-amino]-pyrimidine-5-carbaldehyde O-methyl-oxime]: on HER-2, the half-maximal inhibitory concentration (IC50) is over 10000 nM.
